# Experimental data reported in patent US10029992B2, “Diaminotriazine compounds and their use as herbicides” (BASF SE, priority 2014, dated 2018).
# Assays:
# Assay in all cases: Greenhouse experiment, post-emergence treatment
# Settings in all cases: post-emergence method, application rate 125 g/ha
# SETFA = assay type: in vivo, Setaria faberi
# Description: (§1) The seeds of the test plants were sown separately for each species. […] For this purpose, the test plants were either sown directly and grown in the same containers, or they were first grown separately as seedlings and transplanted into the test containers a few days prior to treatment. Depending on the species, the plants were kept at 10-25° C. or 20-35° C., respectively. The test period extended over 2 to 4 weeks. During this time, the plants were tended, and their response to the individual treatments was evaluated. Evaluation was carried out using a scale from 0 to 100. 100 means no emergence of the plants, or complete destruction of at least the aerial moieties, and 0 means no damage, or normal course of growth. A moderate herbicidal activity is given at values of at least 60, a good herbicidal activity is given at values of at least 70, and a very good herbicidal activity is given at values of at least 85. […] [table]
# PHBPU = assay type: in vivo, Pharbitis purpurea
# Description: as §1
# ELEIN = assay type: in vivo, Eleusine indica
# Description: as §1
smiles,measurement,setting,value
CC(C)(F)c1nc(N)nc(Nc2c(F)cccc2Oc2cc(Cl)cc(OC(F)(F)F)c2)n1 [Example 64],herbicidal activity against SETFA,SETFA,very good (a very good herbicidal activity is given at values of at least 85)
same,herbicidal activity against PHBPU,PHBPU,very good (a very good herbicidal activity is given at values of at least 85)
same,herbicidal activity against ELEIN,ELEIN,very good (a very good herbicidal activity is given at values of at least 85)
